US7964591B2, “Pyridazine derivatives and their use as therapeutic agents” (Novartis Pharma AG, priority 2003, dated 2011)

Target: T1, stearoyl-CoA desaturase (SCD) (Mus musculus, UniProt P13516)
T1 sequence (P13516 1-355): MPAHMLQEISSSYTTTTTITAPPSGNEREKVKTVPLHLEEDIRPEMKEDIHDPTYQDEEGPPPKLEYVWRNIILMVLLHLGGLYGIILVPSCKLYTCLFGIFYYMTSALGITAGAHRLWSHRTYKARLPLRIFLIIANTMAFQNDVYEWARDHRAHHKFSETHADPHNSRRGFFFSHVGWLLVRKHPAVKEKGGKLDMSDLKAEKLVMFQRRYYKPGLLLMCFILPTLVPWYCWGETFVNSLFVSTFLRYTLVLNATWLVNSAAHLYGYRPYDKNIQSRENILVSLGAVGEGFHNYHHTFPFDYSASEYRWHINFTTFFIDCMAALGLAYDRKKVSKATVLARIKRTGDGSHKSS
Assay: Stearoyl-CoA desaturase inhibition using mouse liver microsomes (HTS microsomal assay, IC50 follow-up)
Conditions: % SCD enzyme activity remaining at 10 μM test compound
Method: Livers are immediately rinsed with cold 0.9% NaCl solution, weighed and minced with scissors. All procedures are performed at 4° C. unless specified otherwise. Livers are homogenized in a solution (1:3 w/v) containing 0.25 M sucrose, 62 mM potassium phosphate buffer (pH 7.0), 0.15 M KCl, 1.5 mM N-acetyleysteine, 5 mM MgCl2, and 0.1 mM EDTA using 4 strokes of a Potter-Elvehjem tissue homogenizer. The homogenate is centrifuged at 10,400×g for 20 min to eliminate mitochondria and cellular debris. The supernatant is filtered through a 3-layer cheesecloth and centrifuged at 105,000×g for 60 min. The microsomal pellet is gently resuspended in the same homogenization solution with a small glass/teflon homogenizer and stored at −70° C. The absence of mitochondrial contamination is enzymatically assessed. The protein concentration is measured using bovine serum albumin as the standard.
The tubes are vortexed vigorously and after 15 min incubation in a shaking water bath (37° C.), the reactions are stopped and fatty acids are analyzed.
Fatty acids are analyzed as follows: The reaction mixture is saponified with 10% KOH to obtain free fatty acids which are further methylated using BF3 in methanol. […] Fatty acid methyl esters are separated isocratically with acetonitrile/water (95:5 v:v) at a flow rate of 1 mL/min and are identified by comparison with authentic standards.
The compounds are analyzed with an HTS microsomal assay. The activities are defined in terms of % SCD enzyme activity remaining at the selected concentration (e.g., 10 μM) of the test compounds.

Row | SMILES | Mouse Microsome 10% remaining @ 10 μM [%]
1 | O=C(NCCC1CC1)c1ccc(N2CCN(C(=O)CC(O)(C(F)(F)F)C(F)(F)F)CC2)nn1 [6-[4-(4,4,4-TRIFLUORO-3-HYDROXY-3-TRIFLUOROMETHYLBUTYRYL)PIPERAZIN-1-YL]PYRIDAZINE-3-CARBOXYLIC ACID (2-CYCLOPROPYLETHYL)AMIDE] | 8
2 | CC(=CC(=O)N1CCN(c2ccc(C(=O)NCCC(C)C)nn2)CC1)C(F)(F)F [6-[4-(4,4,4-TRIFLUORO-3-METHYLBUT-2-ENOYL)PIPERAZIN-1-YL]-PYRIDAZINE-3-CARBOXYLIC ACID (3-METHYLBUTYL)AMIDE] | 9
3 | CC(C)CCNC(=O)c1ccc(N2CCN(C(=O)CC(C)C(F)(F)F)CC2)nn1 (stereo not shown) [6-[4-(4,4,4-TRIFLUORO-3-METHYLBUTYRYL)PIPERAZIN-1-YL]PYRIDAZINE-3-CARBOXYLIC ACID (3-METHYLBUTYL)AMIDE] | 11
4 | CC(C)CCNC(=O)c1ccc(N2CCN(C(=O)CCC(F)(F)F)CC2)nn1 [6-[4-(4,4,4-TRIFLUOROBUTYRYL)PIPERAZIN-1-YL]PYRIDAZINE-3-CARBOXYLIC ACID (3-METHYLBUTYL)AMIDE] | 42
5 | O=C(NCCC1CC1)c1ccc(N2CCN(Cc3ccc(F)cc3C(F)(F)F)CC2)nn1 [6-[4-(4-FLUORO-2-TRIFLUOROMETHYLBENZYL)-PIPERAZIN-1-YL]PYRIDAZINE-3-CARBOXYLIC ACID (2-CYCLOPROPYLETHYL)AMIDE] | 12
6 | CC(C)CCNC(=O)c1ccc(N2CCN(C(=O)N3CCN(C)CC3)CC2)nn1 [6-[4-(4-METHYLPIPERAZINE-1-CARBONYL)PIPERAZIN-1-YL]PYRIDAZIN E-3-CARBOXYLIC ACID (3-METHYLBUTYL)AMIDE] | 29
7 | CC(C)CCNC(=O)c1ccc(N2CCN(C(=O)c3cnccc3C(F)(F)F)CC2)nn1 [6-[4-(4-TRIFLUOROMETHYLPYRIDINE-3-CARBONYL)PIPERAZIN-1-YL]PYRIDAZINE-3-CARBOXYLIC ACID (3-METHYLBUTYL)AMIDE] | 8
8 | O=C(NCCC1CC1)c1ccc(N2CCN(C(=O)c3cc(Cl)ccc3C(F)(F)F)CC2)nn1 [6-[4-(5-CHLORO-2-TRIFLUOROMETHYLBENZOYL)PIPERAZIN-1-YL]PYRIDAZINE-3-CARBOXYLIC ACID (2-CYCLOPROPYLETHYL)AMIDE] | 12
9 | O=C(NCCC1CC1)c1ccc(N2CCN(Cc3cc(Cl)ccc3C(F)(F)F)CC2)nn1 [6-[4-(5-CHLORO-2-TRIFLUOROMETHYLBENZYL)PIPERAZIN-1-YL]PYRIDAZINE-3-CARBOXYLIC ACID (2-CYCLOPROPYLETHYL)AMIDE] | 7
10 | O=C(NCCC1CC1)c1ccc(N2CCN(Cc3cc(F)ccc3C(F)(F)F)CC2)nn1 [6-[4-(5-FLUORO-2-TRIFLUOROMETHYLBENZYL)PIPERAZIN-1-YL]PYRIDAZINE-3-CARBOXYLIC ACID (2-CYCLOPROPYLETHYL)AMIDE] | 3
11 | O=C(NCCCC1CC1)c1ccc(N2CCN(Cc3cc(F)ccc3C(F)(F)F)CC2)nn1 [6-[4-(5-FLUORO-2-TRIFLUOROMETHYLBENZYL)PIPERAZIN-1-YL]PYRIDAZINE-3-CARBOXYLIC ACID (3-CYCLOPROPYLPROPYL)AMIDE] | 8
12 | O=C(NCCC1CC1)c1ccc(N2CCN(C(=O)c3ccccn3)CC2)nn1 [6-[4-(PYRIDINE-2-CARBONYL)PIPERAZIN-1-YL]PYRIDAZINE-3-CARBOXYLIC ACID (2-CYCLOPROPYLETHYL)AMIDE] | 94
13 | CC(c1ccccc1C(F)(F)F)N1CCN(c2ccc(C(=O)NCCC3CC3)nn2)CC1.Cl (stereo not shown) [6-{4-[1-(2-TRIFLUOROMETHYLPHENYL)ETHYL]PIPERAZIN-1-YL}-PYRIDAZINE-3-CARBOXYLIC ACID (2-CYCLOPROPYLETHYL)AMIDE HYDROCHLORIDE] | 24
